Test results: ChEMBL document CHEMBL3124875, “A facile access to novel steroidal 17-2'-(1',3',4')-oxadiazoles, and an evaluation of their cytotoxic activities in vitro” (Bioorg Med Chem Lett, 2014)

How the values were obtained:
A2780 [1] = assay: Cytotoxicity against human A2780 cells at 30 uM after 72 hrs by MTT assay; assay type: functional; conditions: A2780, 72 h
A-431 [2] = assay: Cytotoxicity against human A431 cells at 30 uM after 72 hrs by MTT assay; assay type: functional; conditions: A-431, 72 h
HeLa [3] = assay: Cytotoxicity against human HeLa cells after 72 hrs by MTT assay; assay type: functional, cell-based
A-431 [4] = assay: Cytotoxicity against human A431 cells at 10 uM after 72 hrs by MTT assay; assay type: functional; conditions: A-431, 72 h
HeLa [5] = assay: Cytotoxicity against human HeLa cells at 30 uM after 72 hrs by MTT assay; assay type: functional
A2780 [6] = assay: Cytotoxicity against human A2780 cells after 72 hrs by MTT assay; assay type: functional, cell-based; conditions: A2780, 72 h
MCF7 [7] = assay: Cytotoxicity against human MCF7 cells at 10 uM after 72 hrs by MTT assay; assay type: functional; conditions: MCF7, 72 h
MCF7 [8] = assay: Cytotoxicity against human MCF7 cells at 30 uM after 72 hrs by MTT assay; assay type: functional; conditions: MCF7, 72 h
HeLa [9] = assay: Cytotoxicity against human HeLa cells at 10 uM after 72 hrs by MTT assay; assay type: functional
A2780 [10] = assay: Cytotoxicity against human A2780 cells at 10 uM after 72 hrs by MTT assay; assay type: functional; conditions: A2780, 72 h
A-431 [11] = assay: Cytotoxicity against human A431 cells after 72 hrs by MTT assay; assay type: functional, cell-based; conditions: A-431, 72 h
MCF7 [12] = assay: Cytotoxicity against human MCF7 cells after 72 hrs by MTT assay; assay type: functional, cell-based; conditions: MCF7, 72 h

Row | Structure (SMILES) | inhibition at 30 µM (A2780 [1]) [%] | inhibition at 30 µM (A-431 [2]) [%] | IC50 (HeLa [3]) [µM] | inhibition at 10 µM (A-431 [4]) [%] | inhibition at 30 µM (HeLa [5]) [%] | IC50 (A2780 [6]) [µM] | inhibition at 10 µM (MCF7 [7]) [%] | inhibition at 30 µM (MCF7 [8]) [%] | inhibition at 10 µM (HeLa [9]) [%] | inhibition at 10 µM (A2780 [10]) [%] | IC50 (A-431 [11]) [µM] | IC50 (MCF7 [12]) [µM]
1 | CC(=O)O[C@H]1CC[C@@]2(C)C(=CC[C@H]3[C@@H]4CC[C@H](/C=N/NC(=O)c5ccccc5)[C@@]4(C)CC[C@@H]32)C1 | 89.2 | 45.5 | 5.04 | 45.1 | 90.2 | 11.4 | < 20 | 44.4 | 71.2 | 44.3 |  | 
2 | CC(=O)O[C@H]1CC[C@@]2(C)C(=CC[C@H]3[C@@H]4CC[C@H](/C=N/NC(=O)c5cccnc5)[C@@]4(C)CC[C@@H]32)C1 | 84.3 | 37 | 6.44 | 37.1 | 88 | 16.5 | < 20 | 28.7 | 65.8 | 27.8 |  | 
3 | C[C@]12CC[C@H]3[C@@H](CC=C4C[C@@H](O)CC[C@@]43C)[C@@H]1CC[C@@H]2/C=N/NC(=O)c1ccccc1 | 60.9 | 38.1 | 4.68 | < 20 | 90.4 | 20.3 | < 20 | 48 | 72.2 | 32.6 |  | 
4 | C[C@]12CC[C@H]3[C@@H](CC=C4C[C@@H](O)CC[C@@]43C)[C@@H]1CC[C@@H]2c1nnc(-c2ccccc2)o1 | 38.7 | 69.9 | 1.69 | 68 | 80.7 |  | 31.6 | 35.3 | 77.4 | 29.2 | 1.91 | 
5 | CC(=O)O[C@H]1CC[C@@]2(C)C(=CC[C@H]3[C@@H]4CC[C@H](/C=N/NC(=O)c5ccco5)[C@@]4(C)CC[C@@H]32)C1 | 70.5 | 40.4 | 6.95 | 39 | 91.2 | 11.3 | 26.7 | 55.1 | 77.8 | 26.2 |  | 11.9
6 | CC(=O)O[C@H]1CC[C@@]2(C)C(=CC[C@H]3[C@@H]4CC[C@H](c5nnc(-c6cccnc6)o5)[C@@]4(C)CC[C@@H]32)C1 | 48.2 | 60.8 | 20.8 | < 20 | 65.8 |  | 21.8 | 55.7 | 22.5 | 22.8 | 23.6 | 26.1
7 | C[C@]12CC[C@H]3[C@@H](CC=C4C[C@@H](O)CC[C@@]43C)[C@@H]1CC[C@@H]2c1nnc(-c2ccco2)o1 | 37 | 69.2 | 1.56 | 66.6 | 77.5 |  | 42 | 46.6 | 74.9 | 37.5 | 1.82 | 
8 | C[C@]12CC[C@H]3[C@@H](CC=C4C[C@@H](O)CC[C@@]43C)[C@@H]1CC[C@@H]2/C=N/NC(=O)c1ccco1 | 46.4 | 26.1 | 5.57 | 24.9 | 91.2 |  | 21.1 | 53.2 | 78 | 21.1 |  | 28.2
9 | CC(=O)O[C@H]1CC[C@@]2(C)C(=CC[C@H]3[C@@H]4CC[C@H]([C@H]5OC(c6ccccc6)=NN5C(C)=O)[C@@]4(C)CC[C@@H]32)C1 | 53.5 | 41.7 | 21.5 | 22.7 | 71.3 | 27.3 | < 20 | 26.7 | < 20 | 20.2 |  | 
10 | CC(=O)O[C@H]1CC[C@@]2(C)C(=CC[C@H]3[C@@H]4CC[C@H](c5nnc(-c6ccco6)o5)[C@@]4(C)CC[C@@H]32)C1 | 43.5 | 25.9 |  | < 20 | 48.2 |  | 26.1 | 45.3 | 27.5 | 24.1 |  | 
11 | C[C@]12CC[C@H]3[C@@H](CC=C4C[C@@H](O)CC[C@@]43C)[C@@H]1CC[C@@H]2c1nnc(-c2cccnc2)o1 | 33.3 | 65.4 | 4.83 | 60.3 | 74.2 |  | 41.6 | 45.5 | 71.7 | 31.9 | 6.76 | 
12 | CC(=O)O[C@H]1CC[C@@]2(C)C(=CC[C@H]3[C@@H]4CC[C@H](c5nnc(-c6ccccc6)o5)[C@@]4(C)CC[C@@H]32)C1 | 52 | 59.1 | 29.4 | < 20 | 57.4 | 28.8 | 22.6 | 41.5 | < 20 | < 20 | 25.4 | 
13 | C[C@]12CC[C@H]3[C@@H](CC=C4C[C@@H](O)CC[C@@]43C)[C@@H]1CC[C@@H]2/C=N/NC(=O)c1cccnc1 | 66.4 | 71.8 | 5.54 | 40.1 | 90.9 | 11.3 | < 20 | 82.9 | 80.5 | 23.5 | 12.8 | 18.9
14 | CC(=O)O[C@H]1CC[C@@]2(C)C(=CC[C@H]3[C@@H]4CC[C@H]([C@@H]5OC(c6ccccc6)=NN5C(C)=O)[C@@]4(C)CC[C@@H]32)C1 | 40.3 | 30.6 |  | < 20 | 23 |  | < 20 | < 20 | < 20 | < 20 |  | 
